Results as given in patent US20240158368A1, “Pyrrolidine Main Protease Inhibitors as Antiviral Agents” (AbbVie Inc., priority 2022, published 2024).

How the values were obtained:
MERS Mpro = MERS Mpro (Middle East respiratory syndrome-related coronavirus (isolate United Kingdom/H123990006/2012) (MERS-CoV) (Betacoronavirus England 1), UniProt K9N7C7); test: biochemical
OC43 Mpro = OC43 Mpro (Human coronavirus OC43 (HCoV-OC43), UniProt P0C6X6); type: biochemical
in vitro [1] = conditions: human, pH 7.4
[2] = tested on: SARS-CoV-2 (strain USA-WA1/2020); test: microbe, parasite or virus in culture; type: cell-based; conditions: Severe acute respiratory syndrome coronavirus 2; HeLa-ACE2 cells; read-out: Antiviral CoV-2 EC50
in vitro [3] = conditions: PAMPA
in vitro [4] = conditions: rat, pH 7.4
229E Mpro = 229E Mpro (Human coronavirus 229E (HCoV-229E), UniProt P0C6X1); type: biochemical
SARS-CoV-2 Mpro = SARS-CoV-2 Mpro (Severe acute respiratory syndrome coronavirus 2 (2019-nCoV) (SARS-CoV-2), UniProt P0DTD1); type: biochemical

Sequence of 229E Mpro (P0C6X1 2966-3267 limits assumed): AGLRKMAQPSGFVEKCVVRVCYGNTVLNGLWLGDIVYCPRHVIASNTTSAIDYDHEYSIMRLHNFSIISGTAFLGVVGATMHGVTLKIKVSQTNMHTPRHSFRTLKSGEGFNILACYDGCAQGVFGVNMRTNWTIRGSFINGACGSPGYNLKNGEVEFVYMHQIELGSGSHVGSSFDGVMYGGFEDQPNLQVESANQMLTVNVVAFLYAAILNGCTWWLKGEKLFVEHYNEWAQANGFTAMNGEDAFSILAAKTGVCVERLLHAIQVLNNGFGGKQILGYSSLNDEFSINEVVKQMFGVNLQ
Sequence of MERS Mpro (K9N7C7 3248-3553 limits assumed): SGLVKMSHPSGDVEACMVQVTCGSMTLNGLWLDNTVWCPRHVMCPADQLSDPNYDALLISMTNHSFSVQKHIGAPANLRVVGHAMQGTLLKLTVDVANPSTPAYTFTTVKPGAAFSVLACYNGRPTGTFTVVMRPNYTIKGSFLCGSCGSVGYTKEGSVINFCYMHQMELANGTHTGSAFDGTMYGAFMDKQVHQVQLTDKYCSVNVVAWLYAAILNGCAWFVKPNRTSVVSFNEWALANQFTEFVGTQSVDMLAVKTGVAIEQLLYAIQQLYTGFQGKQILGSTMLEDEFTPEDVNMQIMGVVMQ
Sequence of OC43 Mpro (P0C6X6 3247-3549 limits assumed): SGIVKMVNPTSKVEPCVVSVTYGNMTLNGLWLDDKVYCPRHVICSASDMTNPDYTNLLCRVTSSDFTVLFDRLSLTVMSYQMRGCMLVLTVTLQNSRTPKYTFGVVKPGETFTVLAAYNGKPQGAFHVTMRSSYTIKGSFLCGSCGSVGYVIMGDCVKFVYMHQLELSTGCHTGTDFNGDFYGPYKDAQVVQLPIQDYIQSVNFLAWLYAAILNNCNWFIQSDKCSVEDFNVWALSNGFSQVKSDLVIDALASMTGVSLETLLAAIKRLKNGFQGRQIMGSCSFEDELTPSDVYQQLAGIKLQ

Row | SMILES | EC50 (MERS Mpro) | EC50 (OC43 Mpro) | CLint scaled (in vitro [1]; microsomes) | EC50 [2] | Papp (in vitro [3]) | CLint scaled (in vitro [4]; microsomes) | EC50 (229E Mpro) | EC50 (SARS-CoV-2 Mpro) | CLint scaled (in vitro [1]) | CLint scaled (in vitro [4])
1 | Cc1[nH]c(=O)cc(C(=O)N[C@@H]2CCN(c3c(C(=O)N4CCOCC4)cc(Br)cc3C(F)(F)F)C2)c1F [Compound 59] | 1.01 nM | 6.09 nM | < 61.7 mL/min/kg | 95.6 nM | 8.24 ×10⁻⁶ cm/s | < 68.3 mL/min/kg | 20.4 nM | 1.11 nM |  | 
2 | CCS(=O)(=O)N1CCN(C(=O)c2cc(C#N)cc(C(F)(F)F)c2N2CC[C@@H](NC(=O)c3cc(=O)[nH]c4c(F)cccc34)C2)CC1 [Compound 25] | 1.41 nM |  |  |  | 2.06 ×10⁻⁶ cm/s |  |  |  |  | 
3 | O=C(N[C@@H]1CCN(c2c(C(=O)N3CCCCC3)cc(Br)cc2C(F)(F)F)C1)c1cc(=O)[nH]c2c(F)cccc12 [Compound 64] | 1.38 nM | 2.87 nM | 272 mL/min/kg |  | 14.9 ×10⁻⁶ cm/s | 1070 mL/min/kg | 9.61 nM | 0.53 nM |  | 
4 | N#Cc1cc(C(=O)N2CCOCC2)c(N2CC[C@@H](NC(=O)c3cc(=O)[nH]c4c(F)cc(F)cc34)C2)c(C(F)(F)F)c1 [Compound 7] | 0.99 nM | 4.95 nM | < 35 mL/min/kg | 25.6 nM | 6.77 ×10⁻⁶ cm/s | < 58.3 mL/min/kg | 2.76 nM | 0.43 nM |  | 
5 | O=C(N[C@@H]1CC(=O)N(c2c(C(=O)N3CCOCC3)cc(Br)cc2C(F)(F)F)C1)c1c(F)c(=O)[nH]c2c(F)c(F)ccc12 [Compound 77] | 1.69 nM | 28.3 nM | < 38.3 mL/min/kg |  | 3.46 ×10⁻⁶ cm/s | < 65 mL/min/kg | 124 nM | 1.21 nM |  | 
6 | O=C(N[C@@H]1CCN(c2c(OC(F)F)cc(Cl)cc2C(=O)N2CCOCC2)C1)c1cc(=O)[nH]c2c(F)cccc12 [Compound 43] | 1.41 nM | 3.17 nM | 100 mL/min/kg | 24.7 nM | 12.7 ×10⁻⁶ cm/s | 312 mL/min/kg | 15 nM | 0.46 nM |  | 
7 | N#Cc1cc(C(=O)N2CCNC(=O)C2)c(N2CC[C@@H](NC(=O)c3cc(=O)[nH]c4c(F)cccc34)C2)c(C(F)(F)F)c1 [Compound 27] | 1.36 nM | 8.72 nM | < 35 mL/min/kg | 2800 nM | 0.11 ×10⁻⁶ cm/s | < 58.3 mL/min/kg |  | 0.63 nM |  | 
8 | CN1CCN(C(=O)c2cc(C#N)cc(C3CC3)c2N2CC[C@@H](NC(=O)c3cc(=O)[nH]c4c(F)cccc34)C2)CC1 [Compound 41] | 0.82 nM | 0.69 nM | 147 mL/min/kg |  | 0.59 ×10⁻⁶ cm/s | 280 mL/min/kg | 2.16 nM | 0.45 nM |  | 
9 | O=C(N[C@@H]1CCN(c2c(OC(F)(F)F)cc(Br)cc2C(=O)N2CCOCC2)C1)c1cc(=O)[nH]c2c(F)cccc12 [Compound 42] | 1.05 nM | 1.4 nM | 125 mL/min/kg | 8.2 nM | 14.7 ×10⁻⁶ cm/s | 482 mL/min/kg | 3.58 nM | 0.45 nM |  | 
10 | O=C(N[C@@H]1CCN(c2c(C(=O)N3CC(F)(F)C3)cc(Br)cc2C(F)(F)F)C1)c1cc(=O)[nH]c2c(F)cccc12 [Compound 70] | 1.96 nM | 11.1 nM | 205 mL/min/kg |  | 13.9 ×10⁻⁶ cm/s | 845 mL/min/kg | 33.7 nM | 1.02 nM |  | 
11 | O=C(N[C@H]1CCN(c2c(C(=O)N3CCOCC3)cc(Br)cc2C(F)(F)F)C1)c1cc(=O)[nH]c2c(F)cccc12 [Compound 47] |  |  | 46.7 mL/min/kg |  | 15.7 ×10⁻⁶ cm/s | 182 mL/min/kg |  |  |  | 
12 | N#Cc1cc(C(=O)N2CCCC2)c(N2CC[C@@H](NC(=O)c3cc(=O)[nH]c4c(F)cccc34)C2)c(C(F)(F)F)c1 [Compound 20] | 1.68 nM |  |  |  | 13.8 ×10⁻⁶ cm/s |  |  |  | < 36.7 mL/min/kg | 142 mL/min/kg
13 | N#Cc1cc(C(=O)N2CCCCC2)c(N2CC[C@@H](NC(=O)c3cc(=O)[nH]c4c(F)cccc34)C2)c(C(F)(F)F)c1 [Compound 15] | 3.28 nM |  |  |  | 15.2 ×10⁻⁶ cm/s |  |  |  | 76.7 mL/min/kg | 220 mL/min/kg
14 | O=C(N[C@@H]1CCN(c2c(C(=O)N3CCC(F)(F)C3)cc(Br)cc2C(F)(F)F)C1)c1cc(=O)[nH]c2c(F)cccc12 [Compound 69] | 1.76 nM | 4.92 nM | 303 mL/min/kg |  | 14.5 ×10⁻⁶ cm/s | 1040 mL/min/kg | 15.5 nM | 0.67 nM |  | 
15 | Cc1cc(C(=O)N[C@@H]2CCN(c3c(C(=O)NCC(C)C)cc(C#N)cc3C(F)(F)F)C2)cc(=O)[nH]1 [Compound 29] | 8.85 nM | 378 nM | < 30 mL/min/kg |  | 3.51 ×10⁻⁶ cm/s | < 51.7 mL/min/kg | 682 nM | 13.9 nM |  | 
16 | N#Cc1cc(C(=O)N2CC3CC(C2)O3)c(N2CC[C@@H](NC(=O)c3cc(=O)[nH]c4c(F)cccc34)C2)c(C(F)(F)F)c1 [Compound 17] | 1.27 nM |  |  |  | 4.6 ×10⁻⁶ cm/s |  |  |  | < 28.3 mL/min/kg | < 48.3 mL/min/kg

Row | SMILES | EC50 (MERS Mpro) | EC50 (OC43 Mpro) | CLint scaled (in vitro [1]; microsomes) | EC50 [2] | Papp (in vitro [3]) | CLint scaled (in vitro [4]; microsomes) | EC50 (229E Mpro) | EC50 (SARS-CoV-2 Mpro) | CLint scaled (in vitro [1]) | CLint scaled (in vitro [4])
17 | N#Cc1cc(C(=O)N2CCOCC2)c(N2CC[C@@H](NC(=O)c3c(F)c(=O)[nH]c4ccccc34)C2)c(C(F)(F)F)c1 [Compound 6] | 2.51 nM | 1.44 nM | < 35 mL/min/kg | 21.9 nM | 3.22 ×10⁻⁶ cm/s | 81.7 mL/min/kg | 2.32 nM | 0.78 nM |  | 
18 | O=C(N[C@@H]1CCN(c2c(C(=O)N3CC4COCC4C3)cc(Br)cc2C(F)(F)F)C1)c1cc(=O)[nH]c2c(F)cccc12 (stereo partly shown) [Compound 66] | 1.28 nM | 2.06 nM | 297 mL/min/kg |  | 15 ×10⁻⁶ cm/s | 607 mL/min/kg | 5.78 nM | 0.48 nM |  | 
19 | Cc1[nH]c(=O)c(F)c(C(=O)N[C@@H]2CCN(c3c(C(=O)N4CCOCC4)cc(C#N)cc3C(F)(F)F)C2)c1Cl [Compound 11] | 1.63 nM | 10.3 nM |  |  | 0.49 ×10⁻⁶ cm/s | < 61.7 mL/min/kg | 5.31 nM | 0.73 nM |  | 
20 | N#Cc1cc(C(=O)N2CCOCC2)c(N2CC[C@@H](NC(=O)c3cc(=O)[nH]c4c(F)cccc34)C2)c(C2CC2)c1 [Compound 40] | 0.89 nM | 0.55 nM | < 28.3 mL/min/kg | 5 nM | 5.15 ×10⁻⁶ cm/s | 220 mL/min/kg | 2.47 nM | 0.42 nM |  | 
21 | N#Cc1cc(C(=O)N2C[C@H]3COC[C@H]3C2)c(N2CC[C@@H](NC(=O)c3cc(=O)[nH]c4c(F)cccc34)C2)c(C(F)(F)F)c1 [Compound 18] | 1.35 nM |  |  | 13.6 nM | 7.19 ×10⁻⁶ cm/s |  |  |  | 38.3 mL/min/kg | 95 mL/min/kg
22 | CO[C@H]1CN(c2c(C(=O)N3CCOCC3)cc(C#N)cc2C(F)(F)F)C[C@@H]1NC(=O)c1cc(=O)[nH]c2c(F)cccc12 [Compound 32] | 1.06 nM | 1.17 nM | 48.3 mL/min/kg | 18.6 nM | 7.29 ×10⁻⁶ cm/s | < 70 mL/min/kg | 1.78 nM | 0.45 nM |  | 
23 | N#Cc1cc(C(=O)N2CCOCC2)c(N2CC[C@H](NC(=O)c3cc(=O)[nH]c4c(F)cccc34)C2)c(C(F)(F)F)c1 [Compound 4] |  |  | < 25 mL/min/kg |  | 5.55 ×10⁻⁶ cm/s | < 41.7 mL/min/kg |  |  |  | 
24 | O=C(N[C@@H]1CCN(c2c(OC(F)(F)F)cc(Cl)cc2C(=O)N2CCOCC2)C1)c1cc(=O)[nH]c2c(F)cccc12 [Compound 44] | 1.07 nM | 1.98 nM | 41.7 mL/min/kg |  | 15.3 ×10⁻⁶ cm/s | 292 mL/min/kg | 3.18 nM | 0.53 nM |  | 
25 | Cc1cc(C(=O)N[C@@H]2CCN(c3c(C(=O)N4CCOCC4)cc(C#N)cc3C(F)F)C2)c(F)c(=O)[nH]1 [Compound 12] | 2.65 nM | 23.4 nM | < 25 mL/min/kg |  | 0.23 ×10⁻⁶ cm/s | < 41.7 mL/min/kg | 90.4 nM | 1.02 nM |  | 
26 | COCCN1CCN(C(=O)c2cc(C#N)cc(C(F)(F)F)c2N2CC[C@@H](NC(=O)c3cc(=O)[nH]c4c(F)cccc34)C2)CC1 [Compound 19] | 1.44 nM |  |  |  | 6.68 ×10⁻⁶ cm/s |  |  |  | < 36.7 mL/min/kg | 200 mL/min/kg
27 | O=C(N[C@@H]1CCN(c2c(C(=O)N3CCCC3)cc(Br)cc2C(F)(F)F)C1)c1cc(=O)[nH]c2c(F)cccc12 [Compound 68] | 1.83 nM | 3.55 nM | 317 mL/min/kg |  | 14.7 ×10⁻⁶ cm/s | 1120 mL/min/kg | 10.4 nM | 0.6 nM |  | 
28 | N#Cc1cc(C(=O)N2CCC(F)(F)C2)c(N2CC[C@@H](NC(=O)c3cc(=O)[nH]c4c(F)cccc34)C2)c(C(F)(F)F)c1 [Compound 21] | 1.3 nM |  |  |  | 8.89 ×10⁻⁶ cm/s |  |  |  | 55 mL/min/kg | 128 mL/min/kg
29 | C[C@@]12COC[C@@H]1CN(C(=O)c1cc(C#N)cc(C(F)(F)F)c1N1CC[C@@H](NC(=O)c3cc(=O)[nH]c4c(F)cccc34)C1)C2 [Compound 16] | 1.46 nM |  |  |  | 7.38 ×10⁻⁶ cm/s |  |  |  | 93.3 mL/min/kg | 313 mL/min/kg
30 | O=C(N[C@@H]1CCN(c2c(C(=O)N3CCOCC3)cc(Br)cc2C(F)(F)F)C1)c1c(F)c(=O)[nH]c2ccccc12 [Compound 53] | 1.86 nM | 0.71 nM | 217 mL/min/kg |  | 8.9 ×10⁻⁶ cm/s | 615 mL/min/kg | 1.98 nM | 0.6 nM |  | 
31 | COCCN(C)C(=O)c1cc(Br)cc(C(F)(F)F)c1N1CC[C@@H](NC(=O)c2cc(=O)[nH]c3c(F)cccc23)C1 [Compound 72] | 2.83 nM | 19.2 nM | 562 mL/min/kg |  | 19.6 ×10⁻⁶ cm/s | 1280 mL/min/kg | 39 nM | 1.11 nM |  | 
